Results: US10233191B2, “Fused piperidine amides as modulators of ion channels” (Vertex Pharmaceuticals Incorporated, priority 2013, dated 2019)

Target: T1, NaV 1.7 (Homo sapiens, UniProt Q15858)
T1 construct: expressed in transfected cells; host or cells: HEK cells
Test: E-VIPR optical membrane potential assay with electrical stimulation
Format: cell-based
Settings: active against one or more sodium channels; assay/subtype not specified in Table 4; read-out: IC50 Binned Activity Data
Source text: E-VIPR Optical Membrane Potential Assay Method with Electrical Stimulation
Sodium channels are voltage-dependent proteins that can be activated by inducing membrane voltage changes by applying electric fields. The electrical stimulation instrument and methods of use are described in Ion Channel Assay Methods PCT/US01/21652, herein incorporated by reference and are referred to as E-VIPR. The instrument comprises a microtiter plate handler, an optical system for exciting the coumarin dye while simultaneously recording the coumarin and oxonol emissions, a waveform generator, a current- or voltage-controlled amplifier, and a device for inserting electrodes in well. Under integrated computer control, this instrument passes user-programmed electrical stimulus protocols to cells within the wells of the microtiter plate.
24 hours before the assay on E-VIPR, HEK cells expressing human NaV subtype, like NaV 1.7, are seeded in 384-well poly-lysine coated plates at 15,000-20,000 cells per well. Other subtypes are performed in an analogous mode in a cell line expressing the NaV of interest. HEK cells are grown in media (exact composition is specific to each cell type and NaV subtype) supplemented with 10% FBS (Fetal Bovine Serum, qualified; GibcoBRL #16140-071) and 1% Pen-Strep (Penicillin-Streptomycin; GibcoBRL #15140-122). Cells are grown in vented cap flasks, in 90% humidity and 10% CO2, to 100% confluence. They are usually split by trypsinization 1:10 or 1:20, depending on scheduling needs, and grown for 2-3 days before the next split.
• 100 mg/mL Pluronic F-127 (Sigma #P2443), in dry DMSO • Compound Plates: 384-well round bottom plate, e.g. Corning 384-well Polypropylene Round Bottom #3656 • Cell Plates: 384-well tissue culture treated plate, e.g. Greiner #781091-1B • 10 mM DiSBAC6(3) (Aurora #00-100-010) in dry DMSO • 10 mM CC2-DMPE (Aurora #00-100-008) in dry DMSO • 200 mM ABSC1 in H2O
Bath1 buffer. Glucose 10 mM (1.8 g/L), Magnesium Chloride (Anhydrous), 1 mM (0.095 g/L), Calcium Chloride, 2 mM (0.222 g/L), HEPES 10 mM (2.38 g/L), Potassium Chloride, 4.5 mM (0.335 g/L), Sodium Chloride 160 mM (9.35 g/L).
Hexyl Dye Solution: Bath1 Buffer+0.5% β-cyclodextrin (make this prior to use, Sigma #C4767), 8 μM CC2-DMPE+2.5 μM DiSBAC6(3). To make the solution Add volume of 10% Pluronic F127 stock equal to volumes of CC2-DMPE+DiSBAC6(3). The order of preparation is first mix Pluronic and CC2-DMPE, then add DiSBAC6(3) while vortexing, then add Bath1+β-Cyclodextrin.
1) Pre-spot compounds (in neat DMSO) into compound plates. Vehicle control (neat DMSO), the positive control (20 mM DMSO stock tetracaine, 125 μM final in assay) and test compounds are added to each well at 160× desired final concentration in neat DMSO. Final compound plate volume will be 80 μL (80-fold intermediate dilution from 1 μL DMSO spot; 160-fold final dilution after transfer to cell plate). Final DMSO concentration for all wells in assay is 0.625%.
2) Prepare Hexyl Dye Solution.
3) Prepare cell plates. On the day of the assay, medium is aspirated and cells are washed three times with 100 μL of Bath1 Solution, maintaining 25 μL residual volume in each well.
4) Dispense 25 μL per well of Hexyl Dye Solution into cell plates. Incubate for 20-35 minutes at room temp or ambient conditions.
5) Dispense 80 μL per well of Bath1 into compound plates. Acid Yellow-17 (1 mM) is added and Potassium Chloride can be altered from 4.5 to 20 mM depending on the NaV subtype and assay sensitivity.
6) Wash cell plates three times with 100 μL per well of Bath1, leaving 25 μL of residual volume. Then transfer 25 uL per well from Compound Plates to Cell Plates. Incubate for 20-35 minutes at room temp/ambient condition
7) Read Plate on E-VIPR. Use the current-controlled amplifier to deliver stimulation wave pulses for typically 9 seconds and a scan rate of 400 Hz. A pre-stimulus recording is performed for 0.5 seconds to obtain the un-stimulated intensities baseline. […]

T1 sequence (Q15858 whole entry): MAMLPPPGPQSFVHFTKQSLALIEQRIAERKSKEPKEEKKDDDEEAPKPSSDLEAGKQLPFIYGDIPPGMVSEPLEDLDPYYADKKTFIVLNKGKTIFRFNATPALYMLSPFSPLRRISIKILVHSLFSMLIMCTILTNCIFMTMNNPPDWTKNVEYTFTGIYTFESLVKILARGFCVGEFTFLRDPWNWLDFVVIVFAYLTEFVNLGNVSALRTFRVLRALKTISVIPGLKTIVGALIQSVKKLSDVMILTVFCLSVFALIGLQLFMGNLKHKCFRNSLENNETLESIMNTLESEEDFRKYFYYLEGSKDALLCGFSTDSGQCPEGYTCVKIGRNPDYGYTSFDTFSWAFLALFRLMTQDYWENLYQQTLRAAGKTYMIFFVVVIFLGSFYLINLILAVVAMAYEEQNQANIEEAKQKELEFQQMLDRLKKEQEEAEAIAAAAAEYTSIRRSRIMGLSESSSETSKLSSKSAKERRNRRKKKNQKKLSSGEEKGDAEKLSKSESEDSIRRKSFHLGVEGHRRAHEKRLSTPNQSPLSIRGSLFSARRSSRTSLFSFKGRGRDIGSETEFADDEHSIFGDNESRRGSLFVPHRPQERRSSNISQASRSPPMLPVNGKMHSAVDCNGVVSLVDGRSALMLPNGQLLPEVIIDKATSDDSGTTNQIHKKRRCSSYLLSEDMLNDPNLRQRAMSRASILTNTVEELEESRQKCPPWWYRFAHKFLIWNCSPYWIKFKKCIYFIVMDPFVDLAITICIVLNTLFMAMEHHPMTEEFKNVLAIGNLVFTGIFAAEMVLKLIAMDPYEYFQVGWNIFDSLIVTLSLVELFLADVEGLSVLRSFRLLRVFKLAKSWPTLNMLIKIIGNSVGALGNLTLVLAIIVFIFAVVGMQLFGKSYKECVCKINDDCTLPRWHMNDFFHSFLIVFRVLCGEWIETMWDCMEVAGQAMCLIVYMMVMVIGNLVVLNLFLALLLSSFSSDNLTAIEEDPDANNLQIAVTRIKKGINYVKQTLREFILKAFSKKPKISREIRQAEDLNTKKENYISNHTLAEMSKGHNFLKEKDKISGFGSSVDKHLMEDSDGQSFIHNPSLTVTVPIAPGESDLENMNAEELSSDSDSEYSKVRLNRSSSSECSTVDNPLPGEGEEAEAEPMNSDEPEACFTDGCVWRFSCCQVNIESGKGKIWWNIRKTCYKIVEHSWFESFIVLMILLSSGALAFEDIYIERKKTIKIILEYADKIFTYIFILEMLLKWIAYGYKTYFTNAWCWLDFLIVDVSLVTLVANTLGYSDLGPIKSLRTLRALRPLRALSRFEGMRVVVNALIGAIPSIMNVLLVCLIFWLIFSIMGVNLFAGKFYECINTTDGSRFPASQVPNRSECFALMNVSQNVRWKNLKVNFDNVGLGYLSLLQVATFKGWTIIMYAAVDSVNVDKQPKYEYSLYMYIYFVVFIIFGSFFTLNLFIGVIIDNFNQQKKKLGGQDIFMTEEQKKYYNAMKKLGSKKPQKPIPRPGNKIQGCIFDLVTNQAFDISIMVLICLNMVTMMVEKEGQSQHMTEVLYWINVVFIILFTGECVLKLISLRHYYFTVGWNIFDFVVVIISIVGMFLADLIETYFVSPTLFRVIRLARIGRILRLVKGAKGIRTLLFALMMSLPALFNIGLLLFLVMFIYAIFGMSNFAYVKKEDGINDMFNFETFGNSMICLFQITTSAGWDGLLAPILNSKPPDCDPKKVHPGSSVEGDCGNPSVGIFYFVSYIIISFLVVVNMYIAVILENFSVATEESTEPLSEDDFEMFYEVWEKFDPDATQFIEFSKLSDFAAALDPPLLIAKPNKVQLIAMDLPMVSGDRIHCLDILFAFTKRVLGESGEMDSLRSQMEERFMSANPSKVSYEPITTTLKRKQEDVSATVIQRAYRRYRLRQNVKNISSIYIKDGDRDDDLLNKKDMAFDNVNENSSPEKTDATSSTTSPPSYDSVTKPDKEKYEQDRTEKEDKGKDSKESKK

Row | IC50 [nM] | SMILES
1 | ≤ 2000 | COc1ccnc(C23CCN(C(=O)c4ccc(OCCOC(F)(F)F)c(OC)c4)CC2OCO3)c1 (centres unmarked) [Compound 112]
2 | ≤ 2000 | O=C(c1ccc(OCCOC(F)(F)F)c(Cl)c1)N1CC[C@@]2(c3ccccn3)COC2C1 (some centres unmarked) [Compound 116]
3 | ≤ 2000 | COc1cc(C(=O)N2CC[C@@]3(c4ccc(F)cc4)OCOC3C2)ccc1OCCOC(F)(F)F (some centres unmarked) [Compound 122]
4 | ≤ 2000 | Cc1cc(C(=O)N2CC[C@]3(c4ncccc4F)OCOC3C2)ccc1OCCOC(F)(F)F (some centres unmarked) [Compound 129]
5 | ≤ 2000 | O=C(c1ccc(OCCOC(F)(F)F)c(Cl)c1)N1CC[C@@]2(c3nccs3)OCOC2C1 (some centres unmarked) [Compound 138]
6 | ≤ 2000 | O=C(c1ccc(OCCOC(F)(F)F)c(Cl)c1)N1CC[C@]2(c3nccs3)OCOC2C1 (some centres unmarked) [Compound 140]
7 | ≤ 2000 | COc1cc(C(=O)N2CC[C@]3(c4cccc(Br)n4)OCOC3C2)ccc1OCCOC(F)(F)F (some centres unmarked) [Compound 141]
8 | ≤ 2000 | Cc1cc(C(=O)N2CC[C@]3(c4cscn4)OCOC3C2)ccc1OCCOC(F)(F)F (some centres unmarked) [Compound 142]
9 | ≤ 2000 | O=C(c1ccc(OCCOC(F)(F)F)c(Cl)c1)N1CC[C@]2(c3ncccc3F)OCOC2C1 (some centres unmarked) [Compound 145]
10 | ≤ 2000 | COc1cc(C(=O)N2CC[C@@]3(c4ccccc4)OCOC3C2)ccc1OCCOC(F)(F)F (some centres unmarked) [Compound 148]
11 | ≤ 2000 | Cc1nc([C@]23CCN(C(=O)c4ccc(OCCOC(F)(F)F)c(Cl)c4)CC2OCO3)cs1 (some centres unmarked) [Compound 149]
12 | ≤ 2000 | COc1cc(C(=O)N2CC[C@]3(c4ccccc4)OCOC3C2)ccc1OCCOC(F)(F)F (some centres unmarked) [Compound 150]
13 | ≤ 2000 | COc1cc(C(=O)N2CC[C@]3(c4cccc(C)n4)OCOC3C2)ccc1OCCOC(F)(F)F (some centres unmarked) [Compound 154]
14 | ≤ 2000 | COc1cc(C(=O)N2CC[C@]3(c4ncccc4Cl)OCOC3C2)ccc1OCCOC(F)(F)F (some centres unmarked) [Compound 155]
15 | ≤ 2000 | O=C(c1ccc(OCCOC(F)(F)F)c(Cl)c1)N1CC[C@]2(c3ccccn3)OCOC2C1 (some centres unmarked) [Compound 157]
16 | ≤ 2000 | Cc1nc(C(=O)N2CC[C@]3(c4ccccn4)OCOC3C2)ccc1OCCOC(F)(F)F (some centres unmarked) [Compound 160]
17 | ≤ 2000 | COc1cc(C(=O)N2CC[C@]3(c4cc(F)ccc4F)OCOC3C2)ccc1OCCOC(F)(F)F (some centres unmarked) [Compound 163]

Second part, the compound before the results:

Row | SMILES | IC50 [nM]
18 | Cc1cc(C(=O)N2CCC3(c4ccccc4)CC3C2)ccc1C(C)(C)O (centres unmarked) [Compound 113] | ≤ 2000
19 | Cc1cc(C(=O)N2CC[C@@]3(c4ccccc4)C[C@@H]3C2)ccc1OCC(C)(C)O [Compound 114] | ≤ 2000
20 | COc1cc(C(=O)N2CCC3(c4ccccc4)CC3C2)ccc1C(C)(C)CO (centres unmarked) [Compound 115] | ≤ 2000
21 | COc1cc(C(=O)N2CC[C@]3(c4ccccc4)OCOC3C2)ccc1OC(C)C(F)(F)F (some centres unmarked) [Compound 117] | ≤ 2000
22 | CCOc1nc(C(=O)N2CC[C@]3(c4nccs4)OCOC3C2)ccc1OCCOC(F)(F)F (some centres unmarked) [Compound 118] | ≤ 2000
23 | O=C(c1cc2n(n1)C(C(F)(F)F)CC(C1CC1)N2)N1CCC2(c3ccccc3)CC2C1 (centres unmarked) [Compound 119] | ≤ 2000
24 | Cc1cc(C(=O)N2CC[C@@]3(c4ccccc4)OCOC3C2)ccc1OCC(C)(C)F (some centres unmarked) [Compound 120] | ≤ 2000
25 | CC(C)(C)COc1ccc(C(=O)N2CC[C@]3(c4ccccn4)OCOC3C2)cc1Cl (some centres unmarked) [Compound 121] | ≤ 2000
26 | O=C(c1ccc(OCC(F)(F)C(F)F)c(C(F)(F)F)c1)N1CC[C@]2(c3ccccn3)OCOC2C1 (some centres unmarked) [Compound 123] | ≤ 2000
27 | Cc1cc(C(=O)N2CC[C@]3(c4ccc(F)cc4)OCOC3C2)ccc1OCC(C)(C)F (some centres unmarked) [Compound 124] | ≤ 2000
28 | COc1nc(C(=O)N2CCC3(c4ccccc4)CC3C2)ccc1OCC(C)(C)F (centres unmarked) [Compound 125] | ≤ 2000
29 | COc1nc(C(=O)N2CC[C@@]3(c4nccs4)OCOC3C2)ccc1OCCOC(F)(F)F (some centres unmarked) [Compound 126] | ≤ 2000
30 | CC(C)(F)COc1ccc(C(=O)N2CC[C@]3(c4ccccn4)OCO[C@@H]3C2)cc1C(F)(F)F [Compound 127] | ≤ 2000
31 | O=C(c1ccc(OCCC(F)(F)F)c(C(F)(F)F)c1)N1CC[C@]2(c3ccccn3)OCOC2C1 (some centres unmarked) [Compound 128] | ≤ 2000
32 | COc1nc(C(=O)N2CC[C@]3(c4ccccn4)OCOC3C2)ccc1OCC1(C(F)(F)F)CC1 (some centres unmarked) [Compound 130] | ≤ 2000
33 | COc1cc(C(=O)N2CC[C@]3(c4cccc(Cl)c4)OCOC3C2)ccc1OCCC(F)(F)F (some centres unmarked) [Compound 131] | ≤ 2000
34 | COc1cc(C(=O)N2CC[C@]3(c4ccccc4)OCCOC3C2)ccc1OCCOC(F)(F)F (some centres unmarked) [Compound 132] | ≤ 2000
35 | Cc1cc(C(=O)N2CC[C@]3(c4ccccc4)C[C@@H]3C2)ccc1OCC(C)(C)O [Compound 133] | ≤ 2000

Row | SMILES | IC50 [nM]
36 | Cc1nc(C(=O)N2CCC3(c4ccccc4)CC3C2)ccc1OC(C)C (centres unmarked) [Compound 134] | ≤ 2000
37 | O=C(c1ccc(OCC2CC2(F)F)c(Cl)c1)N1CC[C@]2(c3ccccn3)OCOC2C1 (some centres unmarked) [Compound 135] | ≤ 2000
38 | COc1cc(C(=O)N2CCC3(c4ccccc4)CC3C2)ccc1COCCC(F)(F)F (centres unmarked) [Compound 136] | ≤ 2000
39 | CCOc1nc(C(=O)N2CC[C@@]3(c4nccs4)OCOC3C2)ccc1OCCOC(F)(F)F (some centres unmarked) [Compound 137] | ≤ 2000
40 | COc1cc(C(=O)N2CC[C@]3(c4ccccc4)OCOC3C2)ccc1OCC1CC(F)(F)C1 (some centres unmarked) [Compound 139] | ≤ 2000
41 | O=C(c1cccc2cccnc12)N1CCC2(c3ccccc3)CC2C1 (centres unmarked) [Compound 143] | ≤ 2000
42 | Cc1nc([C@]23CCN(C(=O)c4ccc(OCCOC(F)(F)F)c(C)c4)CC2OCO3)cs1 (some centres unmarked) [Compound 144] | ≤ 2000
43 | O=C(c1ccc(OCC2CC(F)(F)C2)c(Cl)c1)N1CC[C@]2(c3ccccn3)OCOC2C1 (some centres unmarked) [Compound 146] | ≤ 2000
44 | COc1cc(C(=O)N2CCC3(c4ccccc4)CC3C2)ccc1C(C)(C)O (centres unmarked) [Compound 147] | ≤ 2000
45 | COc1cc(C(=O)N2CCC3(c4ccccc4)CC3C2)ccc1OCCC(C)C (centres unmarked) [Compound 151] | ≤ 2000
46 | Cc1cc(C(=O)N2CC[C@]3(c4ncccc4Cl)OCOC3C2)ccc1OCC(C)(C)F (some centres unmarked) [Compound 152] | ≤ 2000
47 | COc1nc(C(=O)N2CC[C@]3(c4cc(C(F)(F)F)ccn4)OCOC3C2)ccc1OCCOC(F)(F)F (some centres unmarked) [Compound 153] | ≤ 2000
48 | CC(Oc1ccc(C(=O)N2CC[C@]3(c4ccccn4)OCOC3C2)cc1Cl)C(F)(F)F (some centres unmarked) [Compound 156] | ≤ 2000
49 | COc1cc(C(=O)N2CCC3(c4ccccc4)CC3C2)ccc1OCC(C)(C)F (centres unmarked) [Compound 158] | ≤ 2000
50 | [2H]C1([2H])OC2CN(C(=O)c3ccc(OCCOC(F)(F)F)c(OC)n3)CC[C@]2(c2ccccc2)O1 (some centres unmarked) [Compound 159] | ≤ 2000
51 | Cc1cc(C(=O)N2CC[C@]3(c4ccccc4)OCOC3C2)ccc1OCC(C)(C)F (some centres unmarked) [Compound 161] | ≤ 2000
52 | COc1nc(C(=O)N2CC[C@]3(c4cccc(F)c4F)OCOC3C2)ccc1OCCOC(F)(F)F (some centres unmarked) [Compound 162] | ≤ 2000
53 | CC(COc1ccc(C(=O)N2CC[C@]3(c4ccccn4)OCOC3C2)cc1Cl)CC(F)(F)F (some centres unmarked) [Compound 164] | ≤ 2000
